The results in this text go back to PMC8782923, “A Klotho-derived peptide protects against kidney fibrosis by targeting TGF-β signaling” (Nature Communications, 2022).

For data set [1], the system named is ERK1/2, JNK and p38 phosphorylation in NRK-49F cells. The data set is described as follows: TGF-β1-induced MAPK (ERK1/2, JNK, p38) phosphorylation in NRK-49F cells (Western blot). As to conditions: KP1 10 µg/ml (3 μM) or ITD-1 3 μM 1 h, TGF-β1 2 ng/ml 45 min, individual values, n = 3, P <0.001, <0.001 and <0.001, Fig. 3n. Format: cell-based, rat. The procedure: (§1) Normal rat kidney interstitial fibroblasts (NRK-49F) and human proximal tubular epithelial cells (HKC-8) were cultured at 37 °C. NRK-49F cells were serum-starved for 24 h and were pretreated with KP1 (10 µg/ml, 3 µM) for 1 h prior to incubation with TGF-β1 (#240-B; R&D Systems) at 2 ng/ml. Cells were collected at 45 min or 24 h after TGF-β1 treatment, respectively. Whole-cell lysates were prepared and subjected to Western blot analyses. For some experiments, cells were transiently transfected with expression vector human secreted Klotho (sKlotho) that only contains KL1 domain[48], by using Lipofectamine 2000 reagent (Invitrogen, Grand Island, NY) prior to treatment with TGF-β1.
(§2) Western blot analysis was performed as previously described. […] Image J (v1.8.0) was used to quantify Western blot results.

Data set [2] deals with Smad2/3 phosphorylation in NRK-49F cells. The data set is described as follows: TGF-β1-induced Smad2/3 phosphorylation in NRK-49F cells (Western blot). Format: cell-based, rat. Conditions: KP1 10 µg/ml (3 μM) or ITD-1 3 μM 1 h, TGF-β1 2 ng/ml 45 min, individual values, n = 3, P <0.001, 0.008 and <0.001, Fig. 3m. The procedure:
as §1, §2
On the technique in general: Immunoblotting shows a protein as a band on a membrane.

The test system of data set [3] is UUO mice. The experiment in a line: KP1 versus ITD-1 in UUO mice: renal TGF-β signaling and fibrosis proteins (Western blot). Format: in vivo, mouse. The arrangement: renal p-Smad2 (Western blot) / renal p-Smad3 (Western blot) / renal p-p38 (Western blot) / renal p-JNK (Western blot) / renal collagen I (Western blot) / renal fibronectin (Western blot) / renal α-SMA (Western blot): unit not given here. Conditions: KP1 1 mg/kg (0.31 μM/kg) or ITD-1 0.31 μM/kg, individual animals. As for the experimental part: (§3) Male BALB/c mice weighing 20–22 g were purchased from Beijing Vital River Laboratory Animal Technology Co. and housed in a standard environment which was characterized by 12 h light/dark cycle, 22–25 °C, and 40–60% humidity with free access to water and chow (catalog number: SWS9102). Mice have randomly divided into 3 groups: (i) sham controls; (ii) UIRI or UUO mice treated with vehicle; (iii) UIRI or UUO mice treated with KP1. A renal UIRI model was performed. Briefly, under general anesthesia, mice were made a midline abdominal incision, and the left kidney was clipped for 35 min by a vascular clamp. Mice were kept on the heating block at 37 °C during ischemia. The contralateral right kidney was removed on day 10 after ischemia–reperfusion. Mice were sacrificed 11 days after IRI. Blood and kidneys were collected for analysis. UUO model was established. Briefly, the left ureter of the lower pole of the kidney was obstructed by 3–0 surgical suture. KP1 peptide was dissolved in 0.01 M acetic acid and administrated intravenously via tail vein at concentration of 1 mg/day/kg (0.31 μM/day/kg) body weight for 6 days. For some experiments, ITD-1 (S6713, Selleck) was dissolved in PBS with 0.025% DMSO and 0.1% Tween 80 buffer and injected via tail vein at 0.31 μM/day/kg body weight. All animal studies were approved by the Laboratory Animal Ethics Committee of Nanfang Hospital, Southern Medical University.
Western blot analysis was performed as previously described. The primary antibodies used were as follows: anti-fibronectin (dilution 1:10000; F3648; Sigma), anti-α-SMA (dilution 1:1000; ab7817; Abcam), anti-collagen-1 (dilution 1:1000; BM4017; Boster), anti-p-Smad3 (dilution 1:1000; #9520), anti-p-Smad2 (dilution 1:1000; #3104s), anti-p-ERK (dilution 1:1000; #9101s), anti-p-p38 (dilution 1:1000; #9211s), anti-p-JNK (dilution 1:1000; #9251s), anti-Smad2/3 (dilution 1:1000; #8685s), anti-JNK (dilution 1:1000; #9252), anti-ERK (dilution 1:1000; #4695), anti-p38 (dilution 1:1000; #8690; Cell Signaling Technology), anti-Klotho (dilution 1:1000; AF1819; R&D System), anti-TβR2 (dilution 1:1000; sc-7791; Santa Cruz), anti-TGF-β1 (dilution 1:1000; ab92486; Abcam), anti-GAPDH (dilution 1:5000; LK9002L; Sungene, Tianjin), anti-FITC (dilution 1:1000; PA1-26793; Invitrogen), anti-F4/80 (dilution 1:1000; 14-4801-82, eBioscience). The integration of all blots images was performed on Adobe Photoshop CS6. Graphpad Prism 8 was used to get statistics figures. Image J (v1.8.0) was used to quantify Western blot results. […]
in vivo. UUO mice were treated with KP1 (1 mg/kg, 0.31 μM/kg) or ITD-1 (0.31 μM/kg). We stern blot analyses (a, b) and quantitative data of p-Smad2 (c), p-Smad3 (d), p-ERK1/2 (e), p-JNK (f) and p-p38 […]
n=6 biologically independent animals. (h-k) Western blot analyses (h) and quantitative data of fibronectin (i), α-SMA (j) and Collagen Ⅰ (k) are shown. P values (from left to right): 0.001, 0.627, […]
independent animals. Data are presented as mean values +/- SEM. Statistical significance was determined by one-way ANOVA followed by Dunnett’s T3 post hoc test.
(1 picture or pasted object on this page, not shown here)

For data set [4], the system named is UIRI mice. The data set is described as follows: Blood calcium and phosphorus in UIRI mice. In kind it is in vivo, mouse. The procedure: as §3
The target of data set [5] is T1, TGF-β receptor 2 (TβR2), recombinant (Homo sapiens, UniProt P37173).
T1 construct: purchased Sino Biological Inc., Beijing, China 10358-H03H-B
The data set is described as follows: SPR affinity measurement (Biacore T200). In kind it is binding. As to conditions: 25 °C, 1:1 fit, KP1 0.78–25 μM, KP12 1.56–100 μM, representative of two independent experiments, read-out: ka. As for the experimental part:
The SPR analyses were performed on a Biacore T200 apparatus (GE Healthcare, Uppsala Sweden) at 25 °C. Recombinant TGF-β receptor 2 protein (43.4 kDa, >95% as determined by SDS-PAGE) (10358-H03H-B; Sino Biological Inc., Beijing, China) diluted at 50 µg/ml in 10 mM acetate pH 4.0, was covalently immobilized on a CM5 sensor chip (GE Healthcare) using amine-coupling chemistry. Samples of KP1 (3.229 kDa, HPLC purity >95%) or KP12 (3.6 kDa, HPLC purity >95%) in PBS at various concentrations were injected at a flow rate of 60 μl/min. The injection time was set to 180 s, the dissociation time was set to 540 s, and 50 mM Gly-HCl (pH = 2.5) was used as the regeneration buffer. Data were fitted to a 1:1 binding model to obtain KD. All results presented were representative of double or triplicated injections in an interleaved manner. Two independent experiments were performed.

“And” between values parts separate entries of the source, which are not always exact repeats. Equal entries are not always repeated.

T1 sequence (P37173 23-159 limits assumed): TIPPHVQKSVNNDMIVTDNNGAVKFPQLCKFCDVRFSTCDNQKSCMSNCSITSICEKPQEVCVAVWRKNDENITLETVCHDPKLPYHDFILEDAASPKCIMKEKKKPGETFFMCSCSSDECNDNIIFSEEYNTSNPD

`CCOC(=O)C1=C(C)NC2=C(C(=O)CC(C)(C)C2)C1c1ccc(-c2ccccc2)cc1` (centres unmarked) [ITD-1]: the “p-p38 (quantitative Western blot), KP1 versus ITD-1” value in data set [1] was 2.793 and 1.62 and 1.25. Further, in data set [2], the “p-Smad3 (quantitative Western blot), KP1 versus ITD-1” value was 2.756 and 2.347 and 1.188. Besides, in data set [3] (n = 6, P 0.001, 0.477, 0.001, Supplementary Fig. 5k), the “renal collagen I (Western blot)” value is 6.627 and 4.346 and 7.91 and 8.759 and 4.669 and 8.535. Moreover, in data set [3] (n = 6, P 0.001, 0.627, <0.001, Supplementary Fig. 5i), the “renal fibronectin (Western blot)” value is 9.72 and 9.315 and 3.815 and 3.805 and 3.523 and 5.024. Also, the “renal p-ERK1/2 (Western blot)” value in data set [3] (n = 6, P 0.004, 0.988, 0.002, Supplementary Fig. 5e) is 11.5729 and 8.005 and 9.67 and 4.8 and 3.482 and 4.512. Also, the “renal α-SMA (Western blot)” value in data set [3] (n = 6, P 0.006, 0.497, 0.007, Supplementary Fig. 5j) was 10.3176 and 15.77 and 12.2484 and 11.8776 and 11.4615 and 9.704. Also, in data set [3] (n = 6, P <0.001, 0.438, <0.001, Supplementary Fig. 5d), the “renal p-Smad3 (Western blot)” value was 6.279 and 6.866 and 5.7731 and 6.57 and 6.136 and 7.119. Further, the “renal p-JNK (Western blot)” value in data set [3] (n = 6, P <0.001, 0.758, <0.001, Supplementary Fig. 5f) was 4.803 and 6.567 and 5.7 and 7.786 and 5.264 and 7.2. Further, the “renal p-p38 (Western blot)” value in data set [3] (n = 6, P <0.001, 1.00, 0.001, Supplementary Fig. 5g) is 5.956 and 6.507 and 4.878 and 4.538 and 5.819 and 6.755. For the same compound, the “renal p-Smad2 (Western blot)” value in data set [3] (n = 6, P <0.001, 1.00, <0.001, Supplementary Fig. 5c) is 18.8987 and 13.9891 and 9.419 and 10.7729 and 8.909 and 13.9004.

Regarding `CC(C)C[C@H](NC(=O)[C@H](Cc1ccccc1)NC(=O)CNC(=O)[C@H](CC(=O)O)NC(=O)[C@@H]1CCCN1C(=O)[C@H](Cc1ccccc1)NC(=O)[C@@H](NC(=O)CNC(=O)[C@H](CCC(N)=O)NC(=O)[C@@H](N)Cc1ccccc1)[C@@H](C)O)C(=O)N[C@@H](Cc1c[nH]c2ccccc12)C(=O)N[C@@H](C)C(=O)N[C@H](C(=O)NCC(=O)N[C@@H](CO)C(=O)N[C@@H](C)C(=O)N[C@@H](C)C(=O)N[C@@H](Cc1ccc(O)cc1)C(=O)N[C@@H](CCC(N)=O)C(=O)N[C@H](C(=O)N[C@@H](CCC(=O)O)C(=O)NCC(=O)NCC(=O)N[C@@H](Cc1c[nH]c2ccccc12)C(=O)N[C@@H](CCC(N)=O)C(=O)N[C@@H](CCC(N)=O)C(=O)N[C@@H](Cc1c[nH]cn1)C(=O)NCC(=O)N[C@@H](CCCCN)C(=O)NCC(=O)O)[C@@H](C)O)C(C)C` [KP1], the phosphorus in data set [4] (UIRI mice + KP1, individual animals, n = 6, UIRI vs UIRI/KP1 P=0.220, Supplementary Table 2) is 4.92 mmol/L and 5.73 mmol/L and 6.63 mmol/L and 4.9 mmol/L and 3.76 mmol/L and 4.04 mmol/L. Also, the calcium in data set [4] (UIRI mice + KP1, individual animals, n = 6, UIRI vs UIRI/KP1 P=0.798, Supplementary Table 2) is 2.71 mmol/L and 2.53 mmol/L and 2.54 mmol/L and 2.38 mmol/L and 2.93 mmol/L and 2.46 mmol/L. The “effect on blood phosphorus and calcium (in words)” value in data set [4] (compared to the UIRI group) is “did not affect blood phosphorus and calcium level compared to the UIRI group”. In addition, the kon in data set [5] turned out to be 408 M⁻¹ s⁻¹.
